Source: patent US11667673B2, “Therapeutically active compounds and their methods of use” (Servier Pharmaceuticals LLC, priority 2013, dated 2023)
pIC50: −log10 of the molar value.

System: U87MG cells
Experiment: Cellular assay for IDH1m inhibitors: inhibition of 2-HG production in U87MG cells (LC-MS)
Type: cell-based
Protocol: Cells (HT1080 or U87MG) are grown in T125 flasks in DMEM containing 10% FBS, 1× penicillin/streptomycin and 500 ug/mL G418 (present in U87MG cells only). They are harvested by trypsin and seeded into 96 well white bottom plates at a density of 5000 cell/well in 100 ul/well in DMEM with 10% FBS. […] Cells are incubated overnight at 37° C. in 5% CO2. The next day test compounds are made up at 2× the final concentration and 100 ul are added to each cell well. The final concentration of DMSO is 0.2% and the DMSO control wells are plated in row G. The plates are then placed in the incubator for 48 hours. […] The cell plate is placed back in the incubator for another 24 hours. At 72 hours post compound addition, 10 mL/plate of Promega Cell Titer Glo reagent is thawed and mixed. The cell plate is removed from the incubator and allowed to equilibrate to room temperature. Then 100 ul of Promega Cell Titer Glo reagent is added to each well of media. The cell plate is then placed on an orbital shaker for 10 minutes and then allowed to sit at room temperature for 20 minutes. The plate is then read for luminescence with an integration time of 500 ms.

pIC50 (Homo sapiens, U-87 MG, 48 h)	Compound	pIC50 (inhibition of 2-HG production, U87MG cells, 48 hours)
> 7.00	O=C(NC1CCC(F)(F)CC1)[C@H](c1ccccc1Cl)N(C(=O)[C@@H]1CCC(=O)N1c1ncccn1)c1cccc(F)c1 [compound 4, (S)—N—((S)-1-(2-chlorophenyl)-2-((4,4-difluorocyclohexyl)amino)-2-oxoethyl)-N-(3-fluoro-phenyl)-5-oxo-1-(pyrimidin-2-yl)pyrrolidine-2-carboxamide]	–
> 7.00	CN1C[C@@H](C(=O)N(c2cccc(F)c2)[C@H](C(=O)NC2CC(F)(F)C2)c2ccccc2Cl)N(c2cc(C#N)ccn2)C1=O [compound 79]	–
–	(S)—N—((S)-1-(2-Chlorophenyl)-2-(3,3-difluorocyclobutylamino)-2-oxoethyl)-1-(3-cyanophenyl)-N-(1H-indazol-7-yl)-5-oxopyrrolidine-2-carboxamide [compound 186]	> 7.00
